pIC50: −log10 of the molar value.
Columns and labels:
[1] = Selectivity ratio of IC50 for PP2A over IC50 for PP1
[2] = Inhibition of PP2A
[3] = Inhibition of PP1

Structure (SMILES)	Ratio IC50 [1]	pIC50 [2]	pIC50 [3]
C=C/C(=C/C(=O)C[C@H](C)C[C@@H](C)CC[C@H](O)[C@H](C)C(=O)C[C@@H](O)[C@H](C)[C@@H](C)OC(=O)C[C@@H](C)C1=C(C)C(=O)OC1=O)CC [TAUTOMYCETIN]	40	–	–
CO[C@H]([C@H](O)CC(=O)[C@@H](C)[C@@H](O)CC[C@@H](C)[C@@H]1O[C@]2(CC[C@@H](C)[C@H](CC[C@H](C)C(C)=O)O2)CC[C@@H]1C)[C@H](OC(=O)C[C@@H](O)C1=C(C)C(=O)OC1=O)C(C)C [TAUTOMYCIN]	–	7.66	7.66

From ChEMBL document CHEMBL1152336, “Characterization of the tautomycetin biosynthetic gene cluster from Streptomyces griseochromogenes provides new insight into dialkylmaleic anhydride biosynthesis” (J Nat Prod, 2009)
